Source: patent US9610370B2, “Compositions and methods for tumor imaging and targeting by a class of organic heptamethine cyanine dyes that possess dual nuclear and near-infrared properties” (University of Virginia Patent Foundation, priority 2011, dated 2017)
Where two headings read alike, the source gives them in different places.

How the values were obtained:
OATP = settings: cited from earlier work
MCF-7 xenograft tumors = test: Nuclear imaging (microPET/microSPECT) of mice with MCF-7 xenograft tumors; type: in vivo; settings: for visualization of breast tumors in maximal projection images: PC-002 at 48 h post ip, 18F-FDG at 1.5 h post iv, same mouse, FIG. 4
Method: FIG. 1 depicts the SPECT/CT image of PC-001 with a nude mouse model of a human breast cancer MCF-7 xenograft in accordance with various embodiments of the present invention. […] SPECT/CT scan was performed at 20 h post injection.
FIG. 3 depicts the transverse PET images of PC-002 at 24 and 48 h post ip injection and ^18F-FDG at 1.5 h post iv injection of the same mouse (20 g) harbored with MCF-7 tumor xenografts in accordance with various embodiments of the present invention.
FIG. 4 depicts the comparison of maximal projection images (MPIs) of PC-002 at 48 h post ip injection and ^18F-FDG at 1.5 h post iv injection of the same mouse (20 g) harbored with MCF-7 tumor xenografts in accordance with various embodiments of the present invention.
FIG. 8 depicts the transverse PET images of PC-003 at 48 and 72 h post ip injection and with the same mouse (20 g) with MCF-7 tumor xenografts in accordance with various embodiments of the present invention.
PC-001, PC-002, and PC-003 were evaluated as nuclear imaging probe using mice with MCF-7 xenograft tumors. […] PC-002/PET images were compared with FDG/PET with same mice.

[1] = system: human and mouse cancer cell lines in vitro and tumor xenografts in vivo; settings: cited from earlier work
[2] = Blood clearance in nude mice; settings: mouse, in vivo
Method: FIG. 6 depicts the blood clearance curve of PC-002 in nude mice in accordance with various embodiments of the present invention. The T1/2 is 256.9±13.2 min. (N=3).
The half-life (T1/2) of PC-001, PC-002, and PC-003 is 3, 4.3, and 3 hours, respectively. The long blood circulation times results in good images taken at later hours; for example, 24 to 72 hrs post injection.

MCF-7 xenografts = test: NIR fluorescence imaging, in vivo and ex vivo, of mice with MCF-7 xenografts; settings: dissected tumor, ex vivo, FIG. 7
Method: FIG. 2 depicts the NIR fluorescence image of PC-002 with a nude mouse (20 g) with MCF-7 tumor xenografts in accordance with various embodiments of the present invention. PC-002 (10 nmol) in saline (200 ul) was injected via tail vein. The live fluorescence images were performed at time points (as indicated) post injection using an IVIS Spectrum device (Ex/Em=745/800 nm).
FIG. 7 depicts the correlation of PC-002 uptake and ex vivo images in accordance with various embodiments of the present invention. A MCF-7 xenograft tumor was dissected and cut into two halves.
The optical imaging property of “cold” counterpart of PC-002, comprising stable copper isotope, was evaluated with mice models with MCF-7, C4-2, and ARCaPM tumors. In mice with MCF-7 xenografts, tumor uptake of PC-002 was discernable at 3 hrs post injection and contrast of tumor and normal tissues reached most profound at 24 hrs post injection (FIG. 2).
At 24 hrs post PC-002 injection, a MCF-7 xenograft tumor was dissected and cut into two halves. The viable sections of the tumor in white, right photograph matched with PC-002 fluorescence distribution performed using a Caliper Spectrum device (FIG. 7). The cancer cells in the microscopic image of the H/E stained tumor slice were also overlapped with PC-002 NIR fluorescence of the same tumor slice.

[3] = system: subcutaneous C4-2 or tibial ARCaPM tumors; test: Ex vivo fluorescent imaging and frozen-section microscopy of harvested tumors and soft tissues; type: in vivo, mice
Method: FIG. 11 depicts the harvested bone ARCaPM and subcutaneous C4-2 human prostate tumors embedded with OCT at −25° C. and subjected to frozen sectioning using Cryostat in accordance with various embodiments of the present invention. The frozen sections were fixed and aqueously mounted and imaged using fluorescent microscopy (200× magnification). Note the Dual Nuclear/NIR Agent was actively uptaken into tumor cells.
The PC-002 (2 nmole) was intravenously injected into mouse with either subcutaneous C4-2 or tibial ARCaPM tumors and the mice were subjected to fluorescent imaging using the Xenogen Imaging System at the interval of 1 h, 2 h, 4 h, 8 h, 10 h, 12 h, 24 h and 48 h after the dye injection. The fluorescence signal was found accumulating in subcutaneous C4-2 tumor beginning at 24 hr while the signal was found at 2 hr in the in intratibial ARCaPM tumor in mouse skeleton (FIG. 9).
The harvested bone (ARCaPM) and subcutaneous (C4-2) tumors were embedded with OCT at −25° C. and subjected to frozen sectioning using Cryostat.

[4] = system: xenograft prostate tumors; test: PET imaging of xenograft prostate tumors; type: in vivo, mice; settings: FIG. 16
Source text: FIGS. 16A-D illustrate PET imaging of xenograft prostate tumors.
In the past, several attractive PET probes, such as ^18F-2-fluoro-2-deoxy-D-glucose (18 F-FDG) or 111In-tagged antibodies, and more recently the development of smaller sized versions of antibodies such as diabodies and minibodies recognizing PSMA and PSCA, have been proposed to detect PCa; but because of their relative large molecular weight as antibodies, potential host immune response to foreign antibodies, and the lack of Pca specificity using 18F-FDG, application of PET/SPECT probe to detect PCa has not been successful. […] As a small molecule, PC-002 has the advantages of being non-immunogenic, easier to purify and to scale-up, and higher stability for storage and shipping. Because of suboptimal NIR dye signal penetration through deep tissues, we chemically synthesized PC-002, a lead PET 64Cu-DOTA-NIR dye30, to facilitate future translation to the clinic. […] Based on this highly promising result, 64Cu-DOTA-based NIR dye for imaging PCa bone and soft tissue metastases can be used concurrently with 99 mTc-MDP to detect reactive bone activity. For example, this strategy can be used in the robust mouse models of PCa metastasis developed by our laboratory. […]

## O=C1OC(c2ccc(O)c(S(=O)(=O)O)c2)(c2ccc(O)c(S(=O)(=O)O)c2)c2c(Br)c(Br)c(Br)c(Br)c21 [BSP]
OATP
  effect on NIR dye uptake: completely blocked

## OC[C@H]1OC(O)[C@H]([18F])[C@@H](O)[C@@H]1O (stereo partly drawn) [FDG, 18F-2-fluoro-2-deoxy-D-glucose, reference compound]
MCF-7 xenograft tumors
  visualization of breast tumors in maximal projection images: only barely seen

## CC1(C)C(=CC=C2CCCC(C=CC3=[N+](CCCCS(=O)(=O)[O-])c4ccccc4C3(C)C)=C2Cl)N(CCCCS(=O)(=O)[O-])c2ccccc21.[Na+] [IR783]
[1]
  uptake and retention by cancer cell lines and tumor xenografts: uptake and retention

## CCCN1/C(=C/C=C2\CCCC(/C=C/C3=[N+](CCC)c4ccccc4C3(C)C)=C2Cl)C(C)(C)c2ccccc21.[I-] [IR-780]
[1]
  uptake and retention by cancer cell lines and tumor xenografts: uptake and retention

## CC1(C)C(/C=C/C2=C(Cl)C(=C/C=C3/N(CCCCCC(=O)NCCCCC(NC(=O)C[N+]45CC[N+]6(CC(=O)[O-])CC[N+]7(CC(=O)[O-])CC[N+](CC(=O)O)(CC4)[64Cu-2]765)C(=O)O)c4ccccc4C3(C)C)/CCC2)=[N+](CCCCCC(=O)O)c2ccccc21 (centres unmarked) [PC-002]
[2]; half-life (T1/2), blood clearance
  half-life: 258 min
[2]; nude mice, N=3, FIG. 6, read-out: blood clearance T1/2
  half-life: 257 ± 13.2 min
MCF-7 xenograft tumors; FIG. 5
  SUV of MCF-7 tumor relative to hind leg muscles: 6 times
MCF-7 xenograft tumors
  visualization of breast tumors in maximal projection images: clearly visualized
MCF-7 xenograft tumors; microPET or microSPECT
  suitability as nuclear imaging probe: suitable candidates for molecular imaging of cancer
MCF-7 xenograft tumors; same mice, FIGS. 3 and 4
  tumor contrast and selectivity compared with FDG/PET: higher tumor contrast and selectivity than FDG
MCF-7 xenografts
  association of NIR and PC-002 signals with tumor tissue type: associated with viable and not necrotic tissues
[3]; 200× magnification, FIG. 11
  uptake in frozen sections, fluorescent microscopy: selectively uptaken in cancer cells
[3]; harvested at 24 hrs post injection, FIG. 10
  uptake and retention, ex vivo fluorescent imaging: in tumor only
[4]
  selectivity for tumor xenografts: remarkable selectivity
